Measured values taken from PMC7587979 (Molecules, 2020).
“And” between values parts separate entries of the source, which are not always exact repeats. Equal entries are not always repeated. Where two headings read alike, the source gives them in different places.

How the values were obtained:
[1] = system: CQ-resistant P. falciparum FcB1/Colombia strain; assay: In vitro growth inhibition of P. falciparum ([3H]-hypoxanthine incorporation); assay type: cell-based, Plasmodium falciparum; details: for fold more active in comparison to the diester compound 17: ratio of IC50 against P. falciparum FcB1 versus 17; for times more active than FSM: ratio of IC50 against P. falciparum FcB1 versus FSM
Description: Specifically, IC50 (μM) values for the antiplasmodial activities were determined from four independent experiments as the mean values ± standard deviations. IC50 (μM) values for the cytotoxicity activities were determined from two independent experiments as the mean values ± standard deviations. IC50, SIs (ratio between IC50 (μM) of cytotoxicity/IC50 (μM) of the antiplasmodial activity), and XLogGP3 values for the FSM derivatives, hybrid, and conjugates are reported in Table 1.
The chloroquine-resistant FcB1/Colombia strain of Plasmodium falciparum was maintained in vitro on human erythrocytes in RPMI 1640 medium supplemented by 8% (v/v) heat-inactivated human serum, at 37 °C, under an atmosphere of 3% CO2, 6% O2, and 91% N2 [45]. In vitro drug susceptibility assays were measured by [^3H]-hypoxanthine incorporation. Drug stock solutions were prepared in DMSO. Compounds were serially diluted two-fold with 100 μL of culture medium in 96-well plates. Asynchronous parasite cultures (100 μL, 1% parasitaemia and 1% final hematocrite) were then added to each well and incubated for 24 h at 37 °C prior to the addition of 0.5μCi of [^3H]-hypoxanthine (GE Healthcare, France, 1 to 5Ci·mmol/mL) per well [42]. After a further incubation of 24 h, plates were frozen and thawed. Cell lysates were then collected onto fiberglass filters and counted in a liquid scintillation spectrometer. The growth inhibition for each drug concentration was determined by comparison of the radioactivity incorporated in the treated culture with that in the control culture maintained on the same plate. The IC50 value was obtained from the drug concentration–response curve and the results were expressed as the mean values ± standard deviations determined from several independent experiments. Chloroquine and artemisinin were used as antimalarial drug controls.

[2] = system: human primary fibroblasts (cell line AB943); assay: Cytotoxicity evaluation (resazurin) and selectivity index; assay type: cell-based; details: for SI: SI = IC50 (AB943)/IC50 (P.f. FcB1); for cytotoxicity in words: judged from SI, AB943 fibroblasts
Description: Moreover, their cytotoxicity was measured, as previously reported, upon the primary human fibroblast cell line AB943, which allowed the calculation of their selectivity index (SI).
Specifically, IC50 (μM) values for the antiplasmodial activities were determined from four independent experiments as the mean values ± standard deviations. IC50 (μM) values for the cytotoxicity activities were determined from two independent experiments as the mean values ± standard deviations.
Cytotoxicity evaluation was performed upon human primary fibroblasts (cell line AB943). Assays were realized in 96-well plates in DMEM + Glutamax without phenol red medium (Gibco) containing 25 mM HEPES, pH 7.3, 10% fetal calf serum under a 5% CO2 atmosphere, at 37 °C. After trypsin treatment, AB943 cells were seeded at 2000 cells per well in 100 µL. After 24 h of incubation, drugs diluted in culture medium were added (100 µL per well). Drug stock solutions were prepared in dimethyl sulfoxide (DMSO). The final DMSO concentration in the cultures remained below 1%. Control cultures were constituted of cultures treated with DMSO instead of drug. The cytotoxicity assay was based on the conversion of a redo-sensitive dye (resazurin) to a fluorescent product by viable cells. […] The percentage of inhibition of cell growth was calculated by comparing the fluorescence of cells maintained in the presence of drug to that in the absence of drug.

[3] = set-up: method as in PMID 10477522, PMID 17887769; details: in vitro and in a mouse model; cited from earlier work
[4] = CQ-resistant P. falciparum FcB1/Colombia strain, mean ± SD of four independent experiments, read-out: IC50

Compound | IC50 ([1]; Plasmodium falciparum, FCB1) [nM] | SI [2] | other results
Nc1ccccc1NCCCP(=O)(O)O [Compound 35, (3-((2-Aminophenyl)amino)propyl)phosphonic acid] | > 100000 |  | 
CCOP(=O)(CCCN(O)C(=O)CCC(=O)NNC(=O)OC(C)(C)C)OCC [Compound 26, Tert-butyl 2-(4-((3-(diethoxyphosphoryl)propyl)(hydroxy)amino)-4-oxobutanoyl) hydrazine-1-carboxylate] | 86000 ± 1400 |  | 
CCOP(=O)(CCCN(O)C(=O)CCC(=O)N1CCNCC1)OCC [Compound 33, 4-(4-((3-(Diethoxyphosphoryl)propyl)(hydroxy)amino)-4-oxobutanoyl)piperazin-1-ium 2,2,2-trifluoroacetate] | > 100000 |  | 
CC(=O)N(O)CCCP(=O)(O)O [FR900098, reference compound] | 7000 | >14.2 | activity relative to FSM [3]: about twice as active as FSM
CCOP(=O)(CCCN(O)C(=O)CCC(=O)NCc1ccccc1)OCC [Compound 30, Diethyl (3-(4-(benzylamino)-N-hydroxy-4-oxobutanamido)propyl) phosphonate] | > 100000 |  | 
CCOP(=O)(CCCN(O)C(=O)CCC(=O)N1CCN(c2ccnc3cc(Cl)ccc23)CC1)OCC [Compound 19, Diethyl (3-(4-(4-(7-chloroquinolin-4-yl)piperazin-1-yl)-N-hydroxy-4-oxobutanamido)propyl) phosphonate] | 2700 ± 500 | 23.9 | fold more active in comparison to the diester compound 17 [1]: 25–40; times more active than FSM [1]: 3.5–5.5
CCOP(=O)(CCCN(O)C(=O)CC[C@H]1O[C@@H]2O[C@]3(C)CC[C@H]4[C@H](C)CC[C@@H]([C@H]1C)C24OO3)OCC [Compound 21, Diethyl (3-(N-hydroxy-3-((3S,5aS,6R,8aS,9R,10R,12R)-3,6,9-trimethyldecahydro-12H-3, 12-epoxy[1,2]dioxepino[4,3-i]isochromen-10-yl)propanamido)propyl)phosphonate] | 28000 ± 11600 |  | 
CCOP(=O)(CCCN(O)C(=O)CCC(=O)N1CCN(C)CC1)OCC [Compound 32, Diethyl (3-(N-hydroxy-4-(4-methylpiperazin-1-yl)-4-oxobutanamido)propyl) phosphonate] | > 100000 |  | 
O=CN(O)CCCP(=O)(O)O [FSM, fosmidomycin, reference compound] |  | >6.6 | fold less active than FR900098 ([1]; P. falciparum FcB1): 2; IC50 ([1]; Plasmodium falciparum, CQ-resistant P. falciparum FcB1/Colombia strain, mean ± SD of four independent experiments, read-out: IC50): 15000 ± 1700 nM
CCOP(=O)(CCCN(O)C(=O)CCC(=O)Nc1ccccc1N)OCC [Compound 27, Diethyl(3-(4-((2-aminophenyl)amino)-N-hydroxy-4-oxobutanamido)propyl) phosphonate] | 81000 ± 2800 |  | 
CCOP(=O)(CCCN(O)C(=O)CCC(=O)NCCNc1ccnc2cc(Cl)ccc12)OCC.O=C(O)C(F)(F)F [Compound 20, 7-Chloro-N-(2-(4-((3-(diethoxyphosphoryl)propyl)(hydroxy)amino)-4oxobutanamido)ethyl)quinolin-4-aminium 2,2,2-trifluoroacetate] | 4200 ± 900 | 23.7 | fold more active in comparison to the diester compound 17 [1]: 25–40; times more active than FSM [1]: 3.5–5.5
CCOP(=O)(CCCN(O)C(=O)CCC(=O)NC(c1ccccc1)c1ccccc1)OCC [Compound 31, Diethyl(3-(4-(benzhydrylamino)-N-hydroxy-4-oxobutanamido)propyl)phosphonate] | 44200 ± 9500 |  | 
CCOP(=O)(CCCN(O)C(=O)CCC(=O)N(Cc1ccccc1)Cc1ccccc1)OCC [Compound 28, Diethyl (3-(4-(dibenzylamino)-N-hydroxy-4-oxobutanamido)propyl)phosphonate] | 38700 ± 10000 |  | 
CCOP(=O)(CCCN(O)C(C)=O)OCC [Compound 17] |  |  | IC50 [1, 4]: > 100000 nM
CCN(CC)CCCC(C)Nc1ccnc2cc(Cl)ccc12 (stereo not drawn) [CQ, Chloroquine, reference compound] | 72 ± 7.4 |  | 
Diethyl(3-(N-hydroxy-4-oxo-4-((4-(3-((3S,5aS,6R,8aS,9R,10R,12R)-3,6,9-trimethyldecahydro-12H-3,12-epoxy[1,2]dioxepino[4,3-i]isochromen-10-yl)propanamido)butyl)(3-(3-((3S,5aS,6R,8aS,9R,10R,12R)-3,6,9-trimethyldecahydro-12H-3,12-epoxy[1,2]dioxepino[4,3-i]isochromen-10-yl)propanamido)propyl)amino) butanamido)propyl)phosphonate [Compound 22] |  | 94 and 94.1 | IC50 [1, 4]: 360 ± 90 nM; times more active than FSM [1]: 23–41
CCOP(=O)(CCCN(O)C(=O)CCC(=O)Nc1ccc(Cc2ccc(NC(=O)OC(C)(C)C)cc2)cc1)OCC [Compound 29, Tert-butyl(4-(4-(4-((3-(diethoxyphosphoryl)propyl)(hydroxy)amino)-4-oxobutanamido)benzyl)phenyl) carbamate] | 22700 ± 1900 | 1.7 | cytotoxicity in words [2]: cytotoxic
CCOP(=O)(CCCNc1ccccc1N)OCC [Compound 34, Diethyl (3-((2-aminophenyl)amino)propyl)phosphonate] |  | 3.7 | IC50 [1, 4]: 8200 ± 2700 nM; cytotoxicity in words [2]: cytotoxic
Diethyl(3-(4-(bis(4-(3-((3S,5aS,6R,8aS,9R,10R,12R)-3,6,9-trimethyldecahydro-12H-3,12-epoxy[1,2]dioxepino[4,3-i]isochromen-10-yl)propanamido)butyl)amino)-N-hydroxy-4-oxobutanamido)propyl)phosphonate [Compound 23] |  | 34 | IC50 [1, 4]: 650 ± 260 nM; times more active than FSM [1]: 23–41
CCOP(=O)(CCCN(O)C(=O)CCC(=O)N(O)CCCP(=O)(OCC)OCC)OCC [Compound 18, Tetraethyl-((succinylbis(hydroxyazanediyl))bis (propane-3,1-diyl))bis(phosphonate)] | > 100000 |  | 
C[C@@H]1CC[C@H]2[C@@H](C)C(=O)O[C@@H]3O[C@@]4(C)CC[C@@H]1[C@]32OO4 [ART, artemisinin, reference compound] |  |  | IC50 ([1]; Plasmodium falciparum, CQ-resistant P. falciparum FcB1/Colombia strain, control drugs, unit (nM), read-out: IC50): 55 ± 13.6 nM
